Measurements from paper PMC9607644, “Glycoconjugation of Quinoline Derivatives Using the C-6 Position in Sugars as a Strategy for Improving the Selectivity and Cytotoxicity of Functionalized Compounds” (Molecules, 2022).

Experiments:
HCT-116 cells = assay: MTT cytotoxicity assay, HCT-116; type: cell-based, human; conditions: for IC50: Homo sapiens, HCT-116; for Selectivity Index (SI) HCT-116: IC50 NHDF-Neo / IC50 HCT-116, 72 h incubation; for inhibition of cell growth at the highest doses, HCT-116: 72 h
Protocol: (§1) An in vitro biological test package was performed for the obtained derivatives. […] The MTT test is a colorimetric method for detecting proliferating cells. It is based on the ability of the enzyme mitochondrial dehydrogenase to convert yellow tetrazole salt (MTT) into purple formazan. The amount of the product formed in the reaction, determined spectrophotometrically, is proportional to the number of living cells.
(§2) The in vitro cytotoxicity of the test compounds was determined by the MTT (3-[4,5–dimethylthiazol-2-yl]-2,5-diphenyltetrazolium bromide) test (Sigma-Aldrich, Taufkirchen, Germany) according to the manufacturer’s protocol. At the beginning, for each cell line were determined the optimal seeding densities to ensure exponential growth throughout the experimental period. The confluent layer of cells were trypsinized, collected, and suspended in a growth medium. […] Then, the culture medium was replaced with solutions of different concentrations of test compounds in a fresh medium. Stock solutions of test compounds were prepared in DMSO and diluted to final concentrations with appropriate volumes of the growth medium directly before the experiment. Cells suspended in a medium supplemented with 0.5% DMSO (the amount of DMSO necessary to dissolve the highest dose of the respective sample) were used as a control of the experiment. […] The compound-treated cells were incubated for a further 24–72 h. […] After this time, the MTT dye was carefully removed, and the acquired formazan crystals were dissolved by DMSO (Chempur, Piekary Śląskie, Poland). The proliferation was evaluated by measuring the formazan product’s absorbance at a wavelength of 570 nm with a microplate spectrophotometer (Epoch, BioTek, Winooski, VT, USA). All experiments were conducted in triplicate with four technical repeats for each tested concentration. Results were expressed as the percentage change in the viability of the test cells relative to the untreated control cells and calculated as the inhibitory concentration (IC50). […] The results are expressed as the average value ± standard deviation (SD).

MCF-7 cells [1] = assay: MTT cytotoxicity assay, MCF-7; type: cell-based, human; conditions: for IC50: Homo sapiens, MCF7, incubation time 72 h; for Selectivity Index (SI) MCF-7: IC50 NHDF-Neo / IC50 MCF-7, 72 h incubation; for inhibition of cell growth at the highest doses, MCF-7: 72 h
Protocol: as §1, §2

NHDF-Neo cells = assay: MTT cytotoxicity assay, NHDF-Neo; type: cell-based; conditions: Homo sapiens, incubation time 72 h
Protocol: An in vitro biological test package was performed for the obtained derivatives. All newly synthesized compounds were assessed for their cytotoxic activity against human cell lines with increased GLUT expression: the colon cancer cell line (HCT-116) and the breast cancer cell line (MCF-7), as well as on normal human dermal fibroblasts cells (NHDF-Neo), using the MTT assay (3-(4,5-dimethylthiazol-2-yl)-2,5-diphenyltetrazolium bromide). The MTT test is a colorimetric method for detecting proliferating cells. It is based on the ability of the enzyme mitochondrial dehydrogenase to convert yellow tetrazole salt (MTT) into purple formazan. The amount of the product formed in the reaction, determined spectrophotometrically, is proportional to the number of living cells. The antiproliferative activity was expressed as the concentration that caused 50% inhibition of the growth of the population of cells treated with the test compounds relative to the control cells (inhibitory concentration activity—IC50). Table 1 and Table 2 summarize the IC50 values calculated for all tested compounds.
The in vitro cytotoxicity of the test compounds was determined by the MTT (3-[4,5–dimethylthiazol-2-yl]-2,5-diphenyltetrazolium bromide) test (Sigma-Aldrich, Taufkirchen, Germany) according to the manufacturer’s protocol. At the beginning, for each cell line were determined the optimal seeding densities to ensure exponential growth throughout the experimental period. The confluent layer of cells were trypsinized, collected, and suspended in a growth medium. The cell suspension were then seeded into 96-well plates at a density of 1 × 10^4 or 2 × 10^3 (HCT-116) or 5 × 10^3 (MCF-7, NHDF-Neo) per well and incubated for 24 h under standard conditions (5% CO2, 37 °C). Then, the culture medium was replaced with solutions of different concentrations of test compounds in a fresh medium. Stock solutions of test compounds were prepared in DMSO and diluted to final concentrations with appropriate volumes of the growth medium directly before the experiment. Cells suspended in a medium supplemented with 0.5% DMSO (the amount of DMSO necessary to dissolve the highest dose of the respective sample) were used as a control of the experiment. […] The compound-treated cells were incubated for a further 24–72 h. After that, the medium was removed and the MTT solution (50 µL, 0.5 mg/mL in PBS) was added into each well and incubated for another 3 h under standard conditions (5% CO2, 37 °C). After this time, the MTT dye was carefully removed, and the acquired formazan crystals were dissolved by DMSO (Chempur, Piekary Śląskie, Poland). The proliferation was evaluated by measuring the formazan product’s absorbance at a wavelength of 570 nm with a microplate spectrophotometer (Epoch, BioTek, Winooski, VT, USA). All experiments were conducted in triplicate with four technical repeats for each tested concentration. Results were expressed as the percentage change in the viability of the test cells relative to the untreated control cells and calculated as the inhibitory concentration (IC50). The IC50 values were defined as the drug concentration that was necessary to reduce cell proliferation to 50% of the untreated control and this parameter was calculated using CalcuSyn software (version 2.0, Biosoft, Cambridge, UK). The results are expressed as the average value ± standard deviation (SD).

MCF-7 cells [2] = assay: Annexin V-FITC/PI apoptosis flow cytometry, MCF-7; type: cell-based, human; conditions: IC50 dose, 24 h
Text: Apoptosis is a natural biological process involving programmed cell death and plays an important role in maintaining correct homeostasis between cell proliferation and cell death. This is in contrast to necrosis, which is accompanied by acute inflammation, preceded by cell degradation due to the loss of the integrity of the cell membrane. It is possible to distinguish viable cells from apoptotic and necrotic cell fractions using Annexin V-FITC and Propidium Iodide (PI). Annexin V-FITC labels phosphatidylserine residues that, after the start of apoptosis, are located on the outer surface of the cell membrane, enabling the identification of cells in the early stages of apoptosis. PI binds stoichiometrically to intracellular DNA during late apoptosis and necrosis when the cell membrane has been damaged. This combination allows for the differentiation of early apoptotic (A+/P−), late apoptotic (A+/P+), necrosis (A−/P+), and normal (A−/P−) cells that can be quantified by flow cytometry.
The cell cycle and the type of cell death induced by the test compounds were measured by using flow cytometry according to the manufacturer’s protocol. […] Control cells were grown with fresh medium supplemented with 0.5% DMSO. After 24 h of incubation, the cells were collected by trypsinization. Then, samples were centrifuged (3 min, 2000 rpm, RT) and washed with PBS, after which the cells were centrifuged again (3 min, 2000 rpm, RT) and the supernatant was carefully removed. The resulting precipitate contained cells, which were used for flow cytometry experiments.
The fraction of dead cells after treatment with the test compounds were detected using the FITC Annexin-V Apoptosis Detection Kit with PI (BioLegend, San Diego, CA, USA). […] 250 μL of the Annexin-V Binding Buffer was then added and the samples were incubated in the dark on ice for 15 min.

SMILES	IC50 (HCT-116 cells; MTT, incubation time 24 h)	IC50 (HCT-116 cells; MTT, incubation time 72 h)	Selectivity Index (SI) HCT-116 (HCT-116 cells)	growth inhibitory activity in words, HCT-116 (HCT-116 cells; MTT)	IC50 (MCF-7 cells [1]; MTT)	Selectivity Index (SI) MCF-7 (MCF-7 cells [1])	growth inhibitory activity in words, MCF-7 (MCF-7 cells [1]; MTT)	IC50 (NHDF-Neo cells)	inhibition of cell growth at the highest doses, HCT-116 (HCT-116 cells; MTT)	inhibition of cell growth at the highest doses, MCF-7 (MCF-7 cells [1]; MTT)	apoptotic cells, MCF-7 (MCF-7 cells [2])	apoptosis induction in words, MCF-7 (MCF-7 cells [2])
OC[C@H]1O[C@@H](n2cc(COc3cccc4cccnc34)nn2)[C@H](O)[C@@H](O)[C@@H]1O [Compound E-2, reference compound]	212 ± 7.71 µM	162 ± 5.97 µM	1.43	practically did not affect the cell viability	185 ± 2.21 µM	1.26	practically did not affect the cell viability	233 ± 9.44 µM				
OC1O[C@H](Cn2cc(COc3cccc4cccnc34)nn2)[C@@H](O)[C@H](O)[C@H]1O (some centres unmarked) [Compound A-2]	191 ± 2.46 µM	22.3 ± 0.7 µM	14.21		54.9 ± 8.71 µM	5.78		317 ± 9.46 µM	100%	100%	39%	
CC(=O)OC[C@H]1O[C@@H](n2cc(COc3cccc4cccnc34)nn2)[C@H](OC(C)=O)[C@@H](OC(C)=O)[C@@H]1OC(C)=O [Compound E-1, reference compound]		45.7 ± 1.81 µM	1.21		57.7 ± 3.32 µM	0.96		55.3 ± 5.08 µM	100%	100%		did not induce apoptosis
CC(=O)OC1O[C@H](Cn2cc(COc3cccc4cccnc34)nn2)[C@@H](OC(C)=O)[C@H](OC(C)=O)[C@H]1OC(C)=O (some centres unmarked) [Compound A-1]	83.5 ± 1.91 µM	12 ± 0.9 µM	10.83		52.8 ± 0.75 µM	2.46		130 ± 1.49 µM	100%	100%	35%	
O[C@@H]1[C@@H](O)[C@@H](O[C@H]2O[C@H](Cn3cc(COc4cccc5cccnc45)nn3)[C@@H](O)[C@H](O)[C@H]2O)O[C@H](Cn2cc(COc3cccc4cccnc34)nn2)[C@H]1O [Compound D-2]	53.4 ± 5.14 µM	21.3 ± 0.94 µM	3.32		34 ± 0.95 µM	2.08		70.7 ± 0.75 µM			70%	
